According to patent US8192935B2, “Methods for assessing cisplatin resistance, disease progression, and treatment efficacy in ovarian cancer as related to MetAP2 expression” (The Penn State Research Foundation, priority 2003, dated 2012):
Values joined by “and” are separate entries in the source; they are usually repeats but may differ in a detail not shown here. Equal values may be shown once. Read-outs that look alike come from different tables or passages of the source.

Key:
[1] = system: OVCA 429 cells; conditions: for 429: increased sensitivity to cis-platin: OVCA 429 cells with specific siRNA
[2] = system: OVCAR-3 cells; assay: tumor growth of OVCAR-3 cells in nude mice; type: in vivo; conditions: cis-platin 4 μg/kg IP 3 times a week for 2 weeks, then 1 week no treatment; one mouse
Description: The following protocol was developed for examining tumor growth using OVCAR-3 cells and nude mice: OVCAR-3 cells (15 million/injection) were inoculated under upper arm region of nude mice. Visible lumps appeared after 25 days. The tumors were measurable at about 35 days after inoculation and animals were then either treated with cis-platin at 4 μg/kg body weight administered by IP injection 3 times a week for 2 weeks, followed by 1 week with no treatment or treated with saline solution alone as control. […] A photograph of the tumors before and after cis-platin treatment is also shown.

[3] = system: zinc finger protein 262/MYM (AB007885); assay: siRNA-mediated knockdown of gene expression; type: cell-based, human; conditions: OVCA 429 cells
[4] = system: OVCAR-3 cells; assay: MTT assay, cis-platin sensitivity with siRNA; type: cell-based, human; conditions: OVCAR-3 cells with specific siRNA
[5] = system: eIF5 (U49436); assay: siRNA-mediated knockdown of gene expression; type: cell-based, human; conditions: OVCA 429 cell

| Compound | IC50 ([1]; read-out: IC50 of cis-platin alone, OVCA 429, 4 hours exposure (FIG. 40)) | IC50 ([1]; read-out: IC50 of cis-platin, controls without specific siRNA or inhibitor, OVCA 429, 24 hour exposure, siPORT only or sense strand only) | tumor size [2] | reduction of zinc finger protein 262/MYM mRNA levels compared to control [3] | OVCAR-3: increased sensitivity to cis-platin [4] | 429: increased sensitivity to cis-platin [1] | reduction of eIF5 mRNA levels compared to control [5] |
| --- | --- | --- | --- | --- | --- | --- | --- |
| N.N.[Cl][Pt][Cl] [cis-platin] | ~100 µM | 25 to 50 µM and 25 µM and ~25 µM | stabilization of the tumor size |  |  |  |  |
| Zinc finger protein 262/MYM siRNA #3: siRNA to zinc finger protein 262/MYM; target sequence AAAATATGGGAACCTACAATA (guide AAAATATGGGAACCTACAATA; target site or template, no part of the molecule; listed as DNA, chemistry not given here; listed as Homo Sapiens) |  |  |  | approximately 45% | yes | yes |  |
| eIF5 siRNA #1: siRNA to eIF5; target sequence AATGACCGTTACATTGTCAAT (guide AATGACCGTTACATTGTCAAT; target site or template, no part of the molecule; listed as DNA, chemistry not given here; listed as Homo Sapiens) |  |  |  |  | yes | yes | approximately 59% |
